Assay results from ChEMBL document CHEMBL1201862, “PubChem BioAssay data set” (2004).
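Method: 48-hour compound exposure of cells in 96-well plates, five concentrations, linear interpolation of endpoints. Here, GI50 denotes the concentration required for 50% inhibition of growth.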 Activity calls are given as the source filed them. Cut-off read from the data, not from the text of the source: active = GI50 up to about 1.1 µM and inactive = higher.

How the values were obtained:
Assay in all cases: DTP human tumour cell line panel, 48 h
[1] = test system: SN12C
[2] = test system: A549
[3] = test system: CAKI-1
[4] = test system: HL-60
[5] = test system: SK-MEL-28
[6] = test system: TK-10
[7] = test system: EKVX
[8] = test system: OVCAR-8
[9] = test system: NCI-H460
[10] = test system: SK-MEL-5
[11] = test system: MDA-MB-231
[12] = test system: RXF 393
[13] = test system: IGROV-1
[14] = test system: HT-29
[15] = test system: OVCAR-4
[16] = test system: SR
[17] = test system: NCI-H226
[18] = test system: UACC-62
[19] = test system: HCT-15
[20] = test system: BT-549

| Structure (SMILES) | GI50 [1] | GI50 [2] | GI50 [3] | GI50 [4] | GI50 [5] | GI50 [6] | GI50 [7] | GI50 [8] | GI50 [9] | GI50 [10] | GI50 [11] | GI50 [12] | GI50 [13] | GI50 [14] | GI50 [15] | GI50 [16] | GI50 [17] | GI50 [18] | GI50 [19] | GI50 [20] |
| --- | --- | --- | --- | --- | --- | --- | --- | --- | --- | --- | --- | --- | --- | --- | --- | --- | --- | --- | --- | --- |
| C=CCn1c(=O)c2ccccc2[n+]2c(-c3cccc([N+](=O)[O-])c3)csc12 | > 100 µM (inactive) | 42.2 µM (inactive) | 97.3 µM (inactive) | 25.9 µM (inactive) | 66.7 µM (inactive) | 38.4 µM (inactive) | 33.7 µM (inactive) | 34.8 µM (inactive) | 42.1 µM (inactive) | 11.4 µM (inactive) | 87.3 µM (inactive) | 37.2 µM (inactive) | 50.5 µM (inactive) | 30.8 µM (inactive) | 64.4 µM (inactive) | 17 µM (inactive) | 12.5 µM (inactive) | 31.6 µM (inactive) | – | – |
| COC1CC(OC(=O)c2ccccc2)C(OC(=O)c2ccccc2)C(C)O1 (centres undefined) | > 100 µM (inactive) | > 100 µM (inactive) | > 100 µM (inactive) | > 100 µM (inactive) | > 100 µM (inactive) | > 100 µM (inactive) | > 100 µM (inactive) | > 100 µM (inactive) | > 100 µM (inactive) | > 100 µM (inactive) | > 100 µM (inactive) | > 100 µM (inactive) | > 100 µM (inactive) | – | – | > 100 µM (inactive) | 85.1 µM (inactive) | > 100 µM (inactive) | > 100 µM | – |
| CC(C)=CCC/C(C)=C/CO [GERANIOL] | > 100 µM (inactive) | > 100 µM (inactive) | > 100 µM (inactive) | > 100 µM (inactive) | > 100 µM (inactive) | > 100 µM (inactive) | > 100 µM (inactive) | > 100 µM (inactive) | > 100 µM (inactive) | > 100 µM (inactive) | > 100 µM (inactive) | – | > 100 µM (inactive) | > 100 µM (inactive) | > 100 µM (inactive) | – | > 100 µM (inactive) | > 100 µM (inactive) | > 100 µM | > 100 µM (inactive) |
| CCN(CC)CCCN(c1cc(OC)cc2nccnc12)S(=O)(=O)c1ccc(C)cc1 | > 100 µM (inactive) | > 100 µM (inactive) | > 100 µM (inactive) | > 100 µM (inactive) | > 100 µM (inactive) | > 100 µM (inactive) | > 100 µM (inactive) | > 100 µM (inactive) | > 100 µM (inactive) | > 100 µM (inactive) | – | 41.1 µM (inactive) | > 100 µM (inactive) | > 100 µM (inactive) | > 100 µM (inactive) | > 100 µM (inactive) | > 100 µM (inactive) | > 100 µM (inactive) | > 100 µM | – |
| NC(=S)c1cccc(C2Nc3ccccc3O2)c1 (centres undefined) | < 0.01 µM (active) | 41.5 µM (inactive) | > 100 µM (inactive) | 12.1 µM (inactive) | > 100 µM (inactive) | 81.1 µM (inactive) | 0.019 µM (active) | > 100 µM (inactive) | 49.2 µM (inactive) | 23.5 µM (inactive) | 6.25 µM (inactive) | > 100 µM (inactive) | > 100 µM (inactive) | 92.9 µM (inactive) | 31.5 µM (inactive) | > 100 µM (inactive) | 12.1 µM (inactive) | 19.5 µM (inactive) | 21.9 µM | – |
| COc1cc(/C=C/c2ccc(Br)cc2)cc(OC)c1OC | 18.7 µM (inactive) | 11.7 µM (inactive) | 6.24 µM (inactive) | 3.74 µM (inactive) | 6.21 µM (inactive) | 21.6 µM (inactive) | 11.2 µM (inactive) | 28.3 µM (inactive) | 11.6 µM (inactive) | 5.9 µM (inactive) | – | 15.7 µM (inactive) | 23.6 µM (inactive) | 6.44 µM (inactive) | 21.3 µM (inactive) | 16.1 µM (inactive) | 15.9 µM (inactive) | 8.02 µM (inactive) | 7 µM | – |
| CC(=O)OCC1OC(n2ccc(=O)[nH]c2=O)C(OC(C)=O)C(OC(C)=O)C1OC(C)=O (centres undefined) | > 100 µM (inactive) | > 100 µM (inactive) | > 100 µM (inactive) | > 10 µM (inactive) | > 100 µM (inactive) | > 100 µM (inactive) | > 100 µM (inactive) | > 100 µM (inactive) | > 100 µM (inactive) | > 100 µM (inactive) | – | > 100 µM (inactive) | > 100 µM (inactive) | > 100 µM (inactive) | > 100 µM (inactive) | > 100 µM (inactive) | 9.16 µM (inactive) | > 100 µM (inactive) | > 100 µM | – |
| COc1cccc(/C(Cl)=C(\C=O)c2cccc(OC)c2)c1 | 14 µM (inactive) | 12.1 µM (inactive) | 39 µM (inactive) | 2.69 µM (inactive) | 11.7 µM (inactive) | 20.4 µM (inactive) | 14.9 µM (inactive) | 10.7 µM (inactive) | 12.7 µM (inactive) | 11.5 µM (inactive) | – | 5.12 µM (inactive) | 21 µM (inactive) | 12.3 µM (inactive) | 13.8 µM (inactive) | 5.35 µM (inactive) | 11 µM (inactive) | 4.43 µM (inactive) | 5.6 µM | – |
| C[n+]1c(-c2ccc(/C=N/NC(=N)N/N=C/c3ccc(-c4cn5cc(Cl)ccc5[n+]4C)cc3)cc2)cn2cc(Cl)ccc21 | > 100 µM (inactive) | > 100 µM (inactive) | – | > 100 µM (inactive) | > 100 µM (inactive) | > 100 µM (inactive) | > 100 µM (inactive) | > 100 µM (inactive) | > 100 µM (inactive) | > 100 µM (inactive) | > 100 µM (inactive) | – | > 100 µM (inactive) | > 100 µM (inactive) | > 100 µM (inactive) | > 100 µM (inactive) | – | – | > 100 µM | – |
| NNC(=O)C(=O)NN=C(C(Cl)(Cl)CO)C(Cl)(Cl)CO | > 100 µM (inactive) | > 100 µM (inactive) | 26.9 µM (inactive) | 22.1 µM (inactive) | 25.6 µM (inactive) | 60.3 µM (inactive) | 40.7 µM (inactive) | 21.3 µM (inactive) | 44.9 µM (inactive) | 40.4 µM (inactive) | – | 21.9 µM (inactive) | > 100 µM (inactive) | 37.3 µM (inactive) | > 100 µM (inactive) | 18.6 µM (inactive) | > 100 µM (inactive) | 65.5 µM (inactive) | 25.7 µM | – |
| CC(C)(C)c1cc2c3c(c1)c(=O)c1cccc4c(O)c5cccc(c2=O)c5c-3c41 | > 100 µM (inactive) | > 100 µM (inactive) | > 100 µM (inactive) | 58.5 µM (inactive) | 10 µM (inactive) | > 100 µM (inactive) | > 100 µM (inactive) | > 100 µM (inactive) | 54.1 µM (inactive) | – | – | 34 µM (inactive) | > 100 µM (inactive) | 27.7 µM (inactive) | > 100 µM (inactive) | 15.3 µM (inactive) | > 100 µM (inactive) | > 100 µM (inactive) | 48.5 µM | – |
| Clc1cccc(Cl)c1C1SCc2nc3cc4ccccc4cc3n21 (centres undefined) | > 100 µM (inactive) | > 100 µM (inactive) | > 100 µM (inactive) | – | > 100 µM (inactive) | > 100 µM (inactive) | > 100 µM (inactive) | > 100 µM (inactive) | > 100 µM (inactive) | > 100 µM (inactive) | > 100 µM (inactive) | > 100 µM (inactive) | > 100 µM (inactive) | > 100 µM (inactive) | > 100 µM (inactive) | – | > 100 µM (inactive) | > 100 µM (inactive) | > 100 µM | > 100 µM (inactive) |
| O=c1/c(=C/c2ccccc2[N+](=O)[O-])sc2nnc(-c3ccco3)n12 | 34.5 µM (inactive) | 19.8 µM (inactive) | 39.7 µM (inactive) | 24.8 µM (inactive) | 21.8 µM (inactive) | > 100 µM (inactive) | 36.2 µM (inactive) | 17 µM (inactive) | 25.2 µM (inactive) | 19.1 µM (inactive) | – | 16.8 µM (inactive) | 25.1 µM (inactive) | 28.1 µM (inactive) | 22.4 µM (inactive) | 32.3 µM (inactive) | 23 µM (inactive) | 25.8 µM (inactive) | 28.2 µM | – |
| Cc1ccc(S(=O)(=O)Oc2nc3nc4ccccc4nc3nc2OS(=O)(=O)c2ccc(C)cc2)cc1 | > 100 µM (inactive) | > 100 µM (inactive) | > 100 µM (inactive) | > 10 µM (inactive) | > 100 µM (inactive) | > 100 µM (inactive) | 13.6 µM (inactive) | > 100 µM (inactive) | > 100 µM (inactive) | > 100 µM (inactive) | > 100 µM (inactive) | > 100 µM (inactive) | > 100 µM (inactive) | > 100 µM (inactive) | – | – | > 100 µM (inactive) | > 100 µM (inactive) | > 100 µM | > 100 µM (inactive) |
| O=C1c2ccccc2NC(=O)C2C1C(c1ccccc1)CC2(O)c1ccccc1 (centres undefined) | > 100 µM (inactive) | 30 µM (inactive) | 78 µM (inactive) | 53.1 µM (inactive) | > 100 µM (inactive) | 39.3 µM (inactive) | > 100 µM (inactive) | > 100 µM (inactive) | 34.7 µM (inactive) | 84.5 µM (inactive) | 34.4 µM (inactive) | 80.9 µM (inactive) | 52.4 µM (inactive) | 26 µM (inactive) | 17.7 µM (inactive) | 70.3 µM (inactive) | – | > 100 µM (inactive) | 50.5 µM | – |
| N=C1c2ccccc2C(=O)c2c(NCCNCCO)ccc(O)c21 | 4.83 µM (inactive) | 6.3 µM (inactive) | 10.3 µM (inactive) | 6.85 µM (inactive) | 8.15 µM (inactive) | 11.9 µM (inactive) | 12 µM (inactive) | 4.72 µM (inactive) | 5.06 µM (inactive) | 7.03 µM (inactive) | – | 4.66 µM (inactive) | 5.38 µM (inactive) | 9.02 µM (inactive) | 23.4 µM (inactive) | 0.579 µM (active) | 9.84 µM (inactive) | 6.4 µM (inactive) | 25.5 µM | – |
